Entries after “also recorded” stand apart in the source; their conditions may differ.
How the values were obtained:
APP/PS1 transgenic mice = experiment: Morris water maze in APP/PS1 transgenic mice; format: in vivo, mouse; conditions: 0.9 mg/kg once every 24 hours
Protocol: Animals and treatments: Male and female human WT alpha-synuclein over-expressing transgenic mice^32 at 6 months of age were given vehicle (10% beta-cyclodextrin) or LNK-754-TS (0.09, 0.9 and 9 mg/kg) per oral gavage twice daily for 3 months or animals at 7 months of age were given vehicle (2.5% beta-cyclodextrin) or LNK-754-TS (2 mg/kg) once every three days for 3 months. Male and female TAU transgenic mice expressing TAU441 bearing the missense mutations V337M^50 and R406W under the control of the murine Thy-1 promoter with a CB6xC57BL/6 background were 5 months old at the time when the oral treatment for three months with LNK-754-TS (0.9 and 0.09 mg/kg) as well as vehicle (2.5% beta-cyclodextrin) was started. Female human APP/PS1 (APP (London V7171)/PS1(A246E)) over-expressing transgenic mice were treated with LNK-754-TS (0.9 mg/kg) or vehicle (2.5% beta-cyclodextrin) for 2 months or 12 days.
Morris water maze (MWM) analysis of cognitive performance: In APP/PS1 transgenic animals, swimming behavior in a Morris Water Maze was videotaped and analyzed (Ethovision, Noldus, Wageningen, Netherlands). For mice, a place navigation test was used to locate the hidden platform in five blocks of three trials over three consecutive days. […] The time each mouse needed for location of the platform was measured. […] The time and path length each rat needed to locate the platform was measured. […]

p70 S6 kinase (S6K) = experiment: p70S6K phosphorylation in SH-SY5Y cells; format: cell-based, human; conditions: FIG. 8f
TAU441 transgenic mice = experiment: Porsolt forced swim task in TAU441 transgenic mice; format: in vivo, mouse
From the text: Tests relevant to depression-like behaviors in rodents are primarily stress-induced reductions in avoidance or escape, termed behavioral despair. One of the most widely used animal tests for depression is the Porsolt forced swim task (Porsolt et al., Arch. Int. Pharmacodyn. Ther. 229(2):327-36, 1977; Porsolt et al., Eur. J. Pharmacol. 47(4):379-91, 1978). This study was designed to evaluate the effects of treatment with LNK-754 on behavior of TAU441 transgenic mice. At start of the treatment, the animals were 5 months old. Untreated non-transgenic animals of the same age were tested and sacrificed serving as the baseline group. Mice received vehicle or LNK-754-TS at a dose of 0.09 mg per kg, 7 days a week for 90 days. In the last week of the treatment period and before sacrifice, mice were evaluated using the Porsolt forced swim task (FIG. 10B).

Atg1 = experiment: mRNA levels of autophagy-related genes (Atg1) in SH-SY5Y cells; format: cell-based, human; conditions: 100 nM (FIG. 8d)
Protocol: (§1) Quantitative real-time PCR: Gene expression profiles were done by qPCR on series of known autophagy genes. RNA was extracted with Tri-reagent (Sigma), and cDNAs generated using iScript (Biorad). qPCR analysis was carried out in a 96 well plate using an iCycler (BioRad, Hercules, Calif.), and iQ SYBR Green Supermix (Biorad) according to the manufacturer's specifications.
The mechanism of autophagy stimulation by LNK-754-TS appears distinct from that of the drug rapamycin. Rapamycin is a well-characterized autophagy stimulator that acts through inhibition of mTOR, a kinase involved in nutrient signaling and regulation of cell growth and survival. […] To further contrast the mechanism of autophagy stimulation by LNK-754-TS to that of rapamycin, a collection of mRNA transcripts of autophagy proteins were measured (FIG. 8d). Selected mRNAs from untreated SH-SY5Y cells were compared to mRNAs from cells treated with LNK-754-TS (100 nM), tipifarnib (100 nM), or rapamycin (1 μM).

LC3 mRNA = LC3 mRNA (qPCR) in differentiated SH-SY5Y cells; format: cell-based, human
Protocol: Cell culture and immunocytochemistry: SH-SY5Y cells were grown in DMEM medium supplemented with 10% FBS and 1% pen/strep at 37° C. and 5% CO2. Cells were differentiated with 10 μM retinoic acid for 48 hr, then treated with the either rapamycin (100 nM or 1 μM) or with 100 nM of either LNK-754-TS or Tipifarnib for 48-72 hr. Cells were then fixed with 4% paraformaldehyde and stained for LC3 (Novus biological, NB100-2331, dilution 1:800) followed by secondary Alexa-564 anti-Rabbit (A-11011).
as §1
Such increases in LC3 mRNA levels are associated in the literature with stimulation of macroautophagy. This supports the hypothesis that at doses as low as 1 nM in this in vitro system there is stimulation of autophagy in these cells.
Autophagy was measured in a neuroblastoma cell culture system by three distinct approaches: quantitation of autophagy-related mRNA's, immunofluorescence microscopy of autophagosomes, and biochemical detection of the microtubule-associated protein 1 light chain 3 (LC3) a key protein that is required for autophagosome formation. Differentiated human neuroblastoma cells (SH-SY5Y) were treated for 72 hr with LNK-754-TS (0.01-100 nM), Zarnestra® (also referred to herein as tipifarnib) (100 nM) or rapamycin (1 μM).

[1] = 0.09 mg/kg once every 24 hr, 90 days

Q: With C#Cc1cccc(-c2cc(=O)n(C)c3ccc([C@](O)(c4ccc(Cl)cc4)c4cncn4C)cc23)c1 [LNK-754-TS, (R)-6-[(4-chlorophenyl)-hydroxyl-(1-methyl-1-H-imidazol-5-yl)-methyl]-4-(3-ethynylphenyl)-1-methyl-2-(1H)-quinonlinone (2S,3S)-dihydroxybutanedioate] as the molecule, how does the “cognitive performance in Morris water maze vs. vehicle” value (APP/PS1 transgenic mice; 12 days) read?
A: significant cognitive improvement

Q: And the “cognitive performance in Morris water maze vs. vehicle” value (APP/PS1 transgenic mice; two months)?
A: performed significantly better; also recorded: significant cognitive improvement

Q: And the “decrease / inhibition of p70S6K phosphorylation” value (p70 S6 kinase (S6K))?
A: did not inhibit

Q: What about the depressed phenotype (TAU441 transgenic mice; 0.09 mg/kg once every 24 hours) of the same molecule?
A: significantly ameliorated

Q: What about the “floating behavior vs. vehicle” value (TAU441 transgenic mice; [1]) of the same molecule?
A: significantly less; also recorded: decreasing; also recorded: decreased

Q: And the “forced swim behavior compared with non-transgenic mice” value (TAU441 transgenic mice; [1])?
A: behaved similar to non-transgenic mice; also recorded: behaved similarly to non-tg mice; also recorded: levels equivalent to that seen in non-transgenic mice

Q: And the “struggling behavior vs. vehicle” value (TAU441 transgenic mice; [1])?
A: higher percentage; also recorded: increasing; also recorded: significantly increased

Q: What about the “mRNA levels of a set of autophagy-related genes” value (Atg1) of the same molecule?
A: unaffected

Q: What about the “LC3 mRNA level” value (LC3 mRNA; 0.01-100 nM, 72 hr (FIG. 8a)) of the same molecule?
A: upregulated; also recorded: increased

Q: And the “potency of LC3 transcript upregulation relative to the other two compounds” value (LC3 mRNA; 72 hr, vs. Zarnestra and rapamycin)?
A: most potently

Q: What about the “levels of mRNA of LC3” value (LC3 mRNA; doses between 1 and 100 nM, 72 hours (FIG. 4)) of the same molecule?
A: significant increases

Reference: patent US20110294794A1, “TREATMENT OF PROTEINOPATHIES USING A FARNESYL TRANSFERASE INHIBITOR” (Link Medicine Corporation, priority 2008, published 2011)
